These results are taken from patent US8236789B2, “1-adamantyl azetidin-2-one derivatives and drugs containing same” (Kowa Company, Ltd., priority 2008, dated 2012).

What all share (format): biochemical
In one assay the target is T1, human 11β-HSD2 (Homo sapiens, UniProt P80365).
T1 construct: expressed in transfected cells
T1 sequence (P80365 1-405): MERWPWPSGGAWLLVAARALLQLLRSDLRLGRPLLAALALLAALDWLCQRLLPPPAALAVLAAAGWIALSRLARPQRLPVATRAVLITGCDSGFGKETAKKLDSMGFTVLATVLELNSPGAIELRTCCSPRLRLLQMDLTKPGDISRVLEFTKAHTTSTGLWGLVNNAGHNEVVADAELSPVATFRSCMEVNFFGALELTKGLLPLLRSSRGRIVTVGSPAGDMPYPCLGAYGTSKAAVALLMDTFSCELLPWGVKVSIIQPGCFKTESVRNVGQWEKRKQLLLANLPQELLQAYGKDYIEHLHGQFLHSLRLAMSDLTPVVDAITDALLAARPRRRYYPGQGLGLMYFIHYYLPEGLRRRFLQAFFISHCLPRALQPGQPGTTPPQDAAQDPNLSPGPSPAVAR
In words: Enzyme inhibitory activity assay, lysate of HEK293 cells stably expressing human 11β-HSD2, cortisol by competitive ELISA. The note with it: Table 1; cell lysate, 100 nmol/L cortisol, NAD+, 37° C. 1 hour; read-out: in vitro assay (IC50 uM) h HSD2. The procedure:
(§1) 1. Human 11β-HSD1-, Human 11β-HSD2- and Mouse 11β-HSD1-Gene Clonings and Establishment of Stably Expressing Cells
Human 11β-HSD1-, human 11β-HSD2-, and mouse 11β-HSD1-gene clonings were conducted using as a template a reverse transcription product of human-liver RNA, human-kidney RNA (CELL APPLICATIONS), and mouse-kidney RNA respectively, by means of PCR cloning with reference to nucleotide sequences of Genbank Accession Nos. NM_005525, NM_000196, and NM_008288. The obtained PCR products of about 0.9 kbp, 1.2 kbp, and 0.9 kbp were subcloned into an expression vector pcDNA3.1+/Zeo (Invitrogen).
(§2) Human 11β-HSD1- and human 11β-HSD2-expressing vectors were transfected into human kidney-derived cell line, HEK293 cells, using a transfection reagent, jet PEI (Funakoshi). Mouse 11β-HSD1 was transfected to Chinese hamster ovary-derived cell line, CHO-K1 cells. Selection was conducted with 200-400 μg/mL of zeocine (Invitrogen) to provide stably expressing-cell clones. The stably expressing cells were suspended in buffer solution A (20 mmol/L Tris-HCl, pH 7.4, 250 mmol/L sucrose, 1 mmol/L EGTA, 1 mmol/L EDTA, 1 mmol/L MgCl2), sonicated, and then stored at −80° C.
(§3) 2. Assay of Enzyme Inhibitory Activity
(§4) An enzymatic reaction was conducted using a polystyrene 96-well plate. Each well was added with 1 μL of a test agent dissolved in DMSO and then diluted (0.003 to 3 mmol/L), and further added with 10 μL of cell lysate diluted to a concentration of 0.1 mg/mL to 0.4 mg/mL. Next, 90 μL of buffer solution A containing substrate (100 nmol/L cortisone or cortisol) and coenzyme (400 μmol/L NADPH or NAD+) was added and the mixture was incubated at 37° C. for 1 hour. The enzymatic reaction was stopped by treating at 95° C. for 3 minutes. Cortisol that was present in the reaction solution was determined by a competitive ELISA shown below.
Anti-rabbit IgG antibody (Chemi-con) diluted to 2 μg/mL with carbonate buffer solution (pH 9.6) was added in 100 μL each to a 96-well immuno plate (Nunc) and immobilized by an incubation at 4° C. overnight. 50 μL of enzymatic reaction solution was put onto the plates, and further, anti-cortisol antibody (Cosmo Bio) and HRP-labeled cortisol (Cosmo Bio), diluted with buffer solution B (25 mmol/L Tris-HCl pH 7.4, 137 mmol/L NaCl, 2.68 mmol/L KCl), were added in 50 μL respectively and incubated at 4° C. overnight. After washed three times with buffer solution B containing 0.05% Tween 20, the plates were allowed to develop color by adding 100 μL, of color reagent, TMB (Moss). The color reaction was stopped by 25 μL of 1 mol/L sulfuric acid and the absorbance was determined at 450 nm with a microplate reader (Molecular Device, VersaMax).
The values of human 11β-HSD1, human 11β-HSD2, and mouse 11β-HSD1 activities were subtracted from 100, and the resultant values were regarded as the respective 11βHSD inhibition rates of example compounds. […] The comparison of human 11β-HSD1 and human 11β-HSD2 inhibiting activities is shown in Table 1, and the comparison of human 11β-HSD1 and mouse 11β-HSD1 inhibiting activities is shown in Table 2.
In general terms: ELISA stands for enzyme-linked immunosorbent assay.

Another assay deals with T2, human 11β-HSD1 (Homo sapiens, UniProt P28845).
T2 construct: expressed in transfected cells
As to the kind of experiment: Enzyme inhibitory activity assay, lysate of HEK293 cells stably expressing human 11β-HSD1, cortisol by competitive ELISA. Conditions: Table 1; cell lysate, 100 nmol/L cortisone, NADPH, 37° C. 1 hour; read-out: in vitro assay (IC50 uM) h HSD1. The procedure:
as §1, §2, §3, §4
(§5) Anti-rabbit IgG antibody (Chemi-con) diluted to 2 μg/mL with carbonate buffer solution (pH 9.6) was added in 100 μL each to a 96-well immuno plate (Nunc) and immobilized by an incubation at 4° C. overnight. […] After washed three times with buffer solution B containing 0.05% Tween 20, the plates were allowed to develop color by adding 100 μL, of color reagent, TMB (Moss). The color reaction was stopped by 25 μL of 1 mol/L sulfuric acid and the absorbance was determined at 450 nm with a microplate reader (Molecular Device, VersaMax).

For the next assay, the target named is T3, mouse 11β-HSD1 (Mus musculus, UniProt P50172).
T3 construct: expressed in transfected cells
In words: Enzyme inhibitory activity assay, lysate of CHO-K1 cells stably expressing mouse 11β-HSD1, cortisol by competitive ELISA. Conditions: Table 2; cell lysate, 100 nmol/L cortisone, NADPH, 37° C. 1 hour; read-out: in vitro assay (IC50 uM) m HSD1. The procedure: as §1, §2, §3, §4, §5

T3 sequence (P50172 whole entry): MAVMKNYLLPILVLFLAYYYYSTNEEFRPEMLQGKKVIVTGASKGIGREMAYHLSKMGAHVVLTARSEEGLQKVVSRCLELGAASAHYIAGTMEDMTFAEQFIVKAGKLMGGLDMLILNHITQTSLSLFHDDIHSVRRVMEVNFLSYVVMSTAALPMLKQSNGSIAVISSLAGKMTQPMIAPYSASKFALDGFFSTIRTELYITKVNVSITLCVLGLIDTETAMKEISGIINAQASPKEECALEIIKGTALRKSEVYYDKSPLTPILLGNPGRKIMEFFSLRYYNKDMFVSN
T2 sequence (P28845 whole entry): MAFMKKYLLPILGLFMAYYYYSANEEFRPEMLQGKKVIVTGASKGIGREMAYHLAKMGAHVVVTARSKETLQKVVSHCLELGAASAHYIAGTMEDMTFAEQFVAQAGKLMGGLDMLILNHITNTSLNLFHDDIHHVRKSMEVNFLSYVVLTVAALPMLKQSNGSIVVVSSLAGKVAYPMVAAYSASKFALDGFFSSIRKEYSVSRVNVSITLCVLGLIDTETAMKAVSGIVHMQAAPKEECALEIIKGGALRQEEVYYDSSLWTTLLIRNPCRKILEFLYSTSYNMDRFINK

On to `CC1(C)C(=O)N(C2C3CC4CC(C3)CC2C4)C1c1ccccc1C(F)(F)F` (stereo not drawn) [Example 41, 1-(adamantan-2-yl)-3,3-dimethyl-4-(2-trifluoromethylphenyl)azetidin-2-one], for which the 50% inhibitory concentration (IC50) is 3 to 30 µM at human 11β-HSD2, 0.0087 µM on human 11β-HSD1 and 0.079 µM at mouse 11β-HSD1.

For `CC1(C)C(=O)N(C2C3CC4CC(C3)CC2C4)C1c1ccccc1Cl` (stereo not drawn) [Example 44, 1-(adamantan-2-yl)-3,3-dimethyl-4-(2-chlorophenyl)azetidin-2-one], the concentration for half-maximal inhibition (IC50) on human 11β-HSD2 was 3 to 30 µM; on human 11β-HSD1, 0.0055 µM; on mouse 11β-HSD1, 0.076 µM.

With `COc1ccc(C2N(C3C4CC5CC(C4)CC3C5)C(=O)C2(C)C)c(C)c1` (stereo not drawn) [Example 56, 1-(adamantan-2-yl)-3,3-dimethyl-4-(4-methoxy-2-methylphenyl)azetidin-2-one], the IC50 is above 30 µM on human 11β-HSD2, 0.0079 µM at human 11β-HSD1 and 0.46 µM at mouse 11β-HSD1.

As to `CC1(C)C(=O)N(C2C3CC4CC(C3)CC2C4)C1c1cccc2c1OCCCC2` (stereo not drawn) [Example 68, 1-(adamantan-2-yl)-3,3-dimethyl-4-(benzo[b]oxepan-9-yl)azetidin-2-one], the IC50 is 3 to 30 µM at human 11β-HSD2, 0.026 µM on human 11β-HSD1 and 0.02 µM on mouse 11β-HSD1.

As for `CC1(C)C(=O)N(C2C3CC4CC(C3)CC2C4)C1Cc1ccccc1` (stereo not drawn) [Example 69, 4-benzyl-1-(adamantan-2-yl)-3,3-dimethylazetidin-2-one], the IC50 on human 11β-HSD2 was determined as 0.28 µM; at human 11β-HSD1 it was 0.02 µM; at mouse 11β-HSD1, 0.0051 µM.

As to `CC1(C)C(=O)N(C2C3CC4CC(C3)CC2C4)C1C1(c2ccc(Cl)cc2)CC1` (stereo not drawn) [Example 70, 4-[1-(4-chlorophenyl)cyclopropyl]-1-(adamantan-2-yl)-3,3-dimethylazetidin-2-one], the results for the concentration for half-maximal inhibition (IC50) on human 11β-HSD2, on human 11β-HSD1 and at mouse 11β-HSD1 were 4.1 µM, 0.11 µM and 0.0078 µM, respectively.

For `CC1(C)C(=O)N(C2C3CC4CC(C3)CC2C4)C1C1(c2ccccc2)CC1` (stereo not drawn) [Example 71, 1-(adamantan-2-yl)-3,3-dimethyl-4-(1-phenylcyclopropyl)azetidin-2-one], the IC50 was 4.3 µM on human 11β-HSD2, 0.059 µM on human 11β-HSD1 and 0.0061 µM at mouse 11β-HSD1.

For orientation: IC50 means the concentration that inhibits the measured activity by half.
